{"source": "patent US8481524B2", "about": "“c-MET protein kinase inhibitors” (Vertex Pharmaceuticals Incorporated, priority 2007, dated 2013)", "test_system": "c-Met in Snu5 gastric carcinoma cells", "assay": "Inhibition of c-Met activity in Snu5 gastric carcinoma cells (Snu5-AP1-Luc-Pest luciferase signal)", "assay_type": "cell-based, human", "conditions": "Homo sapiens, SNU-5; Snu5-AP1-Luc-Pest cells, 6 hours, Steady Glo luminescence", "excerpt": "Compounds of the invention were also screened for their ability to inhibit the Luciferase-induced signal in an engineered Snu5 cell line. Snu5 [obtained from American Type Culture Collection (Catalog number CRL-5973)] is a human gastric carcinoma known to overexpress c-Met, which is constitutively active. The cell line was transduced with the retrovirus, pCLPCX, which contains a genetic construct consisting of 6×AP1 promoter response elements and a luciferase gene having a C-terminal PEST sequence (proteolytic signal from mouse ornithine decarboxylase, which reduces the half-life of the luciferase). The constitutively active cMet activates cellular pathways (principally MAP kinase), resulting in AP-1-induced transcription of luciferase-PEST and translation into the final product, the activity of which is quantifiable as a chemiluminescent readout upon the addition of luciferin (Steady-Glo from Promega.). Residual luminescence is strongly correlated to the inhibition of c-Met. A stable cell line was obtained by selecting the new cell line (Snu5-AP1-Luc-Pest) with puromycin. The cells were grown in complete media [Iscove's media (Invitrogen) containing 10% fetal bovine serum (FBS, Hyclone) and penicillin/gentamycin (Invitrogen)]. Compounds of the invention were dissolved in DMSO to make 10 mM initial stock solutions. Serial dilutions in DMSO were then made and transferred to complete medium to make a 10× solution. The Snu5-AP1-Luc-Pest cells were counted and diluted to 200,000-cells/mL solution. The cells (90 μL) were added to each well in a 96-well black with clear bottom plate (Costar). Then 10 μL of the 10× compound solution was added to the cells in triplicate. The plates were incubated in a 37° C./5% CO2 incubator. After 6 hours, 50 μL of the Steady Glo reagent (Promega) was added to each well and placed on a plate shaker for 5 minutes to ensure that the cells were completely lysed. The plate was read on a 1450 Microbeta Liquid Scintillation and Luminescence Counter (Perkin-Elmer). The IC50s were calculated using a 4-parameter fit using the graphing software Prism (GraphPad)."}
{"smiles": "COc1ccc(-n2nnnc2-c2cc(-c3cc4c(s3)CCNCC4)cnc2N)c(F)c1", "note": "[Compound 51]", "values": [{"measurement": "IC50", "result": "100 to 1000", "unit": "nM"}]}
{"smiles": "COc1cc(F)c(-n2nnnc2-c2cc(-c3cc4c(s3)CCNCC4)cnc2N)c(F)c1", "note": "[Compound 54]", "values": [{"measurement": "IC50", "result": "100 to 1000", "unit": "nM"}]}
{"smiles": "COCc1ccc(-n2nnnc2-c2cc(-c3cnn(C4CCNCC4)c3)cnc2N)c(F)c1F", "note": "[Compound 65]", "values": [{"measurement": "IC50", "result": "100 to 1000", "unit": "nM"}]}
{"smiles": "COc1ccc(-n2nnnc2-c2cc(-c3cc(C)c(C4CCCNC4)s3)cnc2N)c(F)c1F", "note": "(centres unmarked) [Compound 66]", "values": [{"measurement": "IC50", "result": "≤ 100", "unit": "nM"}]}
{"smiles": "Cc1cc(-c2cnc(N)c(-c3nnnn3-c3ccc(C)c(F)c3F)c2)sc1C1CCCNC1", "note": "(centres unmarked) [Compound 67]", "values": [{"measurement": "IC50", "result": "≤ 100", "unit": "nM"}]}
